Entries after “also recorded” stand apart in the source; their conditions may differ.
Experiments:
[1] = system: salmonella; test: salmonella/mammalian--microsome reverse mutation assay; type: cell-based
Description: 1) salmonella/mammalian--microsome reverse mutation assay;

[2] = system: mouse lymphoma; type: cell-based
Description: 2) mouse lymphoma forward mutation assay;

[3] = system: chinese hamster ovary cells; type: cell-based
Description: 3) chromosomal aberrations in chinese hamster ovary cells;

[4] = system: Balb cells; type: cell-based
Description: 4) in vitro transformation of Balb cells;

[5] = system: human lymphocytes; type: cell-based
Description: 5) sister chromatid exchange in human lymphocytes with and without activation.

[6] = system: Male Rats; test: Acute Oral Toxicity Study in Male Rats; type: in vivo, rat
Description: Acute Oral Toxicity Study in Male Rats

[7] = system: segmented neutrophils, leukocytes, erythrocytes, platelets; test: 28-day rat gavage study: Hematology (blood cell counts); type: in vivo, rat (Crl:CD®BR); conditions: for Segmented Neutrophils (mean): terminal (28 days); for Segmented Neutrophils (mean) / Band Neutrophils (mean) / Basophils (mean) / Other Cells (mean) / Eosinophils (mean) / Monocytes (mean) / Erythrocytes (mean) / Leukocytes (mean) / Platelets (mean) / Lymphocytes (mean): N 5; for Band Neutrophils (mean) / Basophils (mean) / Other Cells (mean) / Eosinophils (mean) / Monocytes (mean) / Erythrocytes (mean) / Leukocytes (mean) / Platelets (mean) / Lymphocytes (mean): terminal; for Band Neutrophils (mean) / Basophils (mean) / Other Cells (mean): control 0.0; for Leukocytes (mean): control 9.6; for Platelets (mean): p ≤ 0.01; for Lymphocytes (mean): control 7.4
Method: (§1) D-allose or deionized water was administered to 15 male and 15 female rats (Crl:CD®BR rats approximately 4 weeks of age from Charles River Laboratories) by gavage once daily for 28 days at dosage levels of D-allose of 3.1 and 5.1 g/Kg/day.
(§2) Each rat was observed twice daily for mortality, morbidity and overt signs of toxicity. Detailed observations were performed once during each study week. Individual body weights, food consumption, food efficiency and water consumption were recorded daily. Hematology, biochemistry and urinalysis evaluations were conducted on all male and female animals during the last week of study. At study termination, all animals were euthanized. […] A complete set of major tissues and organs was harvested and selected organ weights were determined. Protocol-specified tissues were processed histologically and microscopic examination was conducted.
(§3) Clinical laboratory studies were conducted on all main animals at termination of study. Blood samples were obtained from the orbital sinus following an overnight fasting period in which water was available. Urine was collected during the fasting period.
(§4) As a result, bone marrow smears were examined for all animals.

[8] = system: Crl:CD®BR rats; parameters: species or system rat (Crl:CD®BR); conditions: rat, in vivo
Method: as §1, §2
The rats were observed twice daily for signs of overt toxicity at the times of the morbidity/mortality checks. Detailed observations were conducted once each study week during the 28 days of the study.
Individual body weights were recorded daily for the 28 days of the study.
For the first 28 days of the study, individual food consumption was recorded daily and food efficiency was calculated. […] Increases and decreases occurred in food efficiency values for males and females at all treatment levels, with no obvious trend.
Individual water consumption was recorded daily for the 28 days of the study.

[9] = 28-day rat gavage study: Biochemistry and urinalysis; type: in vivo, rat (Crl:CD®BR); conditions: 28 days
Method: as §1, §2, §3

[10] = system: bone marrow; test: 28-day rat gavage study: Bone Marrow smears; type: in vivo, rat (Crl:CD®BR)
Method: as §1, §2, §4

[11] = system: major tissues and organs; test: 28-day rat gavage study: Anatomic Pathology (necropsy and histopathology); type: in vivo, rat (Crl:CD®BR); conditions: 28 days gavage, listed organs
Method: as §1, §2

[12] = D-allose Excretion Routes ([^14 C]D-allose, liquid scintillation counting); type: in vivo, rat
Description: (§5) This study was patterned after that Example 1 where a satellite group of animals received radiolabeled D-allose to establish excretion routes. On day 28, the animals in the satellite groups (5 controls, 5 males and 5 females) received a single dose of [^14 C]D-allose for-study days 1-28 at the same dose concentration as the non-radiolabeled material except for the "Control Satellite Group" which received a single high dose containing radiolabeled D-allose.
(§6) On days 1-27, all control group animals (main and satellite) received deionized water at the same dosage volume as the test animals. However, on day 28 the satellite control animals became "Unadapted High Dose Test Animals" in that they received a high dose (5.1 g/kg) of radiolabeled D-allose. In this manner the "Unadapted High Dose Test Animals" could be directly compared to the multiple high dose animals which were adapted by administration of the high dose for 28 days.
Each rat was observed twice daily for mortality, morbidity and overt signs of toxicity. Detailed observations were performed once during each study week. Individual body weights, food consumption, food efficiency and water consumption were recorded daily. […] Feces samples were collected at 24, 48, 72 and 96 hours after radiolabeled dosing from the satellite group animals. Duplicate aliquots of expired air solution, urine, feces and cage wash were analyzed by liquid scintillation counting (LSC). At study termination, all animals were euthanized. The carcasses from the satellite groups were analyzed for radioactive content only.

[13] = rat, in vivo
Description: as §5, §6
HPLC (High Pressure Liquid Chromatography) of urine from treated animals was compared with C^14 radiolabeled D-allose spiked urine from control animals.

[14] = water solubility; type: physicochemical
[15] = acute oral, 5 grams/Kg, male rats
[16] = females, D-allose 3.1 g/kg/day, control 0.1
[17] = males, D-allose 3.1 g/kg/day, control 0.2
[18] = males, D-allose 5.1 g/kg/day, control 0.2

O=C[C@H](O)[C@H](O)[C@H](O)[C@H](O)CO [D-allose]
mutagenic properties [1]: no mutagenic properties | mutagenic properties [2]: no mutagenic properties | mutagenic properties [3]: no mutagenic properties | mutagenic properties [4]: no mutagenic properties | mutagenic properties [5]: no mutagenic properties | body weight changes [6, 15]: no remarkable body weight changes | mortalities [6, 15]: no mortalities | pharmacotoxic signs [6, 15]: no pharmacotoxic signs | visible post-mortem abnormalities ([6]; rat, in vivo, po): no visible post-mortem abnormalities | segmented neutrophils in some high dose group animals ([7]; 5.1 g/Kg/day, 28 days): very low or not countable | platelets (result in words) ([7]; 28 days gavage, 3.1 and 5.1 g/Kg/day, both sexes): significant reduction in platelet formation; also recorded: dose-related reduction in numbers in both sexes; also recorded: dose-related reduction in platelet counts in both sexes | segmented neutrophils (result in words) ([7]; 28 days gavage, 3.1 and 5.1 g/Kg/day, rats): dose-related reduction in segmented neutrophil production; also recorded: marked decrease in segmented neutrophils which was dose-related; also recorded: reduction in segmented neutrophils | effect on the erythroid series ([7]; 28 days gavage, rats): no apparent effect on the erythroid series | total leukocyte counts (result in words) ([7]; 28 days gavage, rats): reductions in total leukocyte counts | Segmented Neutrophils (mean) ([7]; females, D-allose 3.1 g/kg/day, control 1.8): 0.5 × 10^3 /cmm | Band Neutrophils (mean) ([7]; females, D-allose 3.1 g/kg/day): 0.0 × 10^3 /cmm | Basophils (mean) ([7]; females, D-allose 3.1 g/kg/day): 0.0 × 10^3 /cmm | Other Cells (mean) ([7]; females, D-allose 3.1 g/kg/day): 0.0 × 10^3 /cmm | Eosinophils (mean) [7, 16]: 0.1 × 10^3 /cmm | Monocytes (mean) [7, 16]: 0.1 × 10^3 /cmm | Erythrocytes (mean) ([7]; females, D-allose 3.1 g/kg/day, control 6.17): 6.24 × 10^6 /cumm | Leukocytes (mean) ([7]; females, D-allose 3.1 g/kg/day): 6.5 × 10^3 /cumm | Platelets (mean) ([7]; females, D-allose 3.1 g/kg/day, control 992): 567 × 10^3 /cmm | Segmented Neutrophils (mean) ([7]; females, D-allose 5.1 g/kg/day, control 1.8): 0.1 × 10^3 /cmm | Band Neutrophils (mean) ([7]; females, D-allose 5.1 g/kg/day): 0.0 × 10^3 /cmm | Basophils (mean) ([7]; females, D-allose 5.1 g/kg/day): 0.0 × 10^3 /cmm | Other Cells (mean) ([7]; females, D-allose 5.1 g/kg/day): 0.0 × 10^3 /cmm | Eosinophils (mean) ([7]; females, D-allose 5.1 g/kg/day, control 0.1): 0.1 × 10^3 /cmm | Erythrocytes (mean) ([7]; females, D-allose 5.1 g/kg/day, control 6.17): 6.42 × 10^6 /cumm | Leukocytes (mean) ([7]; females, D-allose 5.1 g/kg/day): 5.4 × 10^3 /cumm | Platelets (mean) ([7]; females, D-allose 5.1 g/kg/day, control 992): 414 × 10^3 /cmm | Segmented Neutrophils (mean) ([7]; males, D-allose 3.1 g/kg/day, control 1.9): 0.9 × 10^3 /cmm | Band Neutrophils (mean) ([7]; males, D-allose 3.1 g/kg/day): 0.0 × 10^3 /cmm | Basophils (mean) ([7]; males, D-allose 3.1 g/kg/day): 0.0 × 10^3 /cmm | Other Cells (mean) ([7]; males, D-allose 3.1 g/kg/day): 0.0 × 10^3 /cmm | Eosinophils (mean) [7, 17]: 0.1 × 10^3 /cmm | Monocytes (mean) [7, 17]: 0.1 × 10^3 /cmm | Erythrocytes (mean) ([7]; males, D-allose 3.1 g/kg/day, control 6.85): 7.10 × 10^6 /cumm | Lymphocytes (mean) ([7]; males, D-allose 3.1 g/kg/day): 9.1 × 10^3 /cmm | Leukocytes (mean) ([7]; males, D-allose 3.1 g/kg/day): 10.3 × 10^3 /cumm | Platelets (mean) ([7]; males, D-allose 3.1 g/kg/day, control 1072): 546 × 10^3 /cmm | Segmented Neutrophils (mean) ([7]; males, D-allose 5.1 g/kg/day, control 1.9): 0.2 × 10^3 /cmm | Band Neutrophils (mean) ([7]; males, D-allose 5.1 g/kg/day): 0.0 × 10^3 /cmm | Basophils (mean) ([7]; males, D-allose 5.1 g/kg/day): 0.0 × 10^3 /cmm | Other Cells (mean) ([7]; males, D-allose 5.1 g/kg/day): 0.0 × 10^3 /cmm | Eosinophils (mean) [7, 18]: 0.1 × 10^3 /cmm | Monocytes (mean) [7, 18]: 0.1 × 10^3 /cmm | Erythrocytes (mean) ([7]; males, D-allose 5.1 g/kg/day, control 6.85): 7.03 × 10^6 /cumm | Lymphocytes (mean) ([7]; males, D-allose 5.1 g/kg/day): 5.6 × 10^3 /cmm | Leukocytes (mean) ([7]; males, D-allose 5.1 g/kg/day, significantly different from control): 5.9 × 10^3 /cumm | Platelets (mean) ([7]; males, D-allose 5.1 g/kg/day, control 1072): 320 × 10^3 /cmm | duration of suppressive effect ([7]; rats, suppression of segmented neutrophil and platelet production): remains only so long as D-allose administration is continued | effect on appearance or behavior (clinical signs) [8]: no definitive D-allose-related effect | mean food consumption values or mean food efficiency values [8]: no D-allose-related effect | mean water consumption values [8]: no D-allose-related effect | Cholesterol ([9]; males, high dose (5.1 g/kg/day), vs. 51 mg/dl, significantly increased): 72 mg/dL | pH ([9]; treated animals): decreased | Urine volumes ([9]; treated groups): decreased | urine specific gravity ([9]; treated groups): increased | numbers of late stage neutrophils in bone marrow ([10]; 3.1 and 5.1 g/kg/day, most striking in the high dose groups): decreased numbers of late stage neutrophils | mature myeloid cells in the bone marrow smears ([10]; 28 days gavage, rats): marked reduction in mature myeloid cells | bone marrow erythroid series ([10]; all groups): well represented with a normal maturation sequence | cytological integrity of the cells in the neutrophil series ([10]; both dosage groups (3.1 and 5.1 g/kg/day)): overall decrease in cytological integrity | Myeloid to erythroid ratios in bone marrows ([10]; both treatment groups, usually, control approximately 1.6 to 3.0): less than 1.0 | bone marrow cellularity and megakaryocytes ([10]; control and both treatment groups): very cellular with adequate numbers of active megakaryocytes in varying stages of maturity | findings at necropsy or on histopathological examination [11]: no treatment related findings | radioactivity retained in carcass ([12]; all groups): less than 1% | excretion of radiolabel in the feces, of the recovered dose ([12]; corrected for recovery): 6 to 9% | urinary excretion, of the recovered dose ([12]; corrected for recovery, average, all three test groups): approximately 90% | differences in the rates or routes of excretion between treatment groups ([12]; radiolabeled D-allose): no substantial differences | radioactivity excretion routes ([12]; radiolabeled D-allose, rats): most of the radioactivity was excreted in the urine with a small amount in the feces and lesser amounts in exhaled air and retained in the carcass | Radiation in exhaled air ([12]; rat, in vivo): less than 0.5% | effects on survival, appearance, behavior, body weights, food consumption or water consumption ([12]; rat, in vivo): no D-allose-related effects | HPLC of urine from treated animals [13]: major peak corresponding to the spiked D-allose peak | undigested D-allose in the urine [13]: confirmed the presence of undigested D-allose in the urine | water solubility [14]: high water solubility

Reference: patent US5620960A, “Use of D-allose as an immunosuppressive agent” (UOP, priority 1994, dated 1997)
